# According to publication PMC9026853, “Design, Physicochemical Characterization, and In Vitro Permeation of Innovative Resatorvid Topical Formulations for Targeted Skin Drug Delivery” (Pharmaceutics, 2022):
# Where “and” joins values, the source holds several entries; their conditions need not be identical. Equal entries are not always repeated.
# What was measured:
# [1] = In vitro cell dose-response (resazurin viability) in 2D culture, NHEK; format: cell-based, human; conditions: human; all concentrations (0.01-1000 µM); read-out: viability of NHEK cells
# Description: (§1) The effects of raw resatorvid on the viability of human representative keratinocyte cell lines exposed to concentrations at 1000 μM, 100 μM, 10 μM, 1 µM, 0.1 µM, and 0.01 µM were tested. HaCaT cells (a human transformed keratinocyte from a histologically normal skin cell line) and primary NHEKs (normal human epidermal keratinocyte cells) were used as models of the human epidermis, which generates keratinocytes in the stratum basale and then differentiates into the final barrier layer of the skin, the stratum corneum. The HaCaT cells were grown in Dulbecco’s modified Eagle’s medium (DMEM), Optimized 1×, 10% (v/v) FBS, and Pen-Strep (100 units/mL penicillin, 100 µg/mL) in a humidified incubator at 37 °C and 5% CO2. The NHEK cells were grown in an NHEK growth medium provided by MatTek (Ashland, MA, USA) in a humidified incubator at 37 °C and 5% CO2.
# (§2) After confluence, the HaCaT and NHEK cells were seeded in a black 96-well plate at a concentration of 5000 cells in 100 µL of media/well, then incubated for 48 h to allow attachment to the surface of the plates. After 48 h, the cells were then exposed to the different concentrations of resatorvid previously mentioned. The drug solutions were prepared by dissolving raw resatorvid powder in 5% (v/v) DMSO and adequate growth medium to make a solution at 1×. A volume of 100 µL of drug solution was added to each well. […] The fluorescence intensity of resorufin was detected at 544 nm (excitation) and 590 nm (emission) using the Molecular Devices® SpectraMax® M3 Multi-Mode Microplate Reader (Sunnyvale, CA, USA). The relative viability of the cells was calculated as followed by Equation (1):(1) Relative Viability %=Sample flourescence intensity/Control flourescece intensity×100%
# [2] = tested on: primary normal human epidermal keratinocytes (NHEKs); experiment: as above; format: cell-based; conditions: 0.01-1000 µM raw resatorvid, 72 h exposure as printed in results
# Description: as §1, §2
# SKH-1 mice = tested on: SKH-1 mice; set-up: method as in PMID 29437671; conditions: topical, cited from earlier work
# [3] = In vitro oil-water partitioning coefficient (Log-P), 1-octanol/PBS, HPLC; format: physicochemical; conditions: for Experimental (Log-P): n = 3, mean ± SD; for partition coefficient (Log-P), range over pH: pH 6.5, 7.1, 8.8
# Description: The HPLC consisted of a Shimadzu LC-2010A HT liquid chromatograph (Torrance, CA, USA), coupled with a UV–Vis dual wavelength detector. The analysis was performed by a reverse-phase HPLC assay, using a Luna C18, 5 μm column (250 mm × 2 mm) (Phenomenex, Torrance, CA, USA), maintained at 25 °C ± 2 °C. Ultraviolet detection was done at 254 nm. The mobile phase conditions were 50:50 (v/v) acetonitrile: trifluoroacetic acid (0.1% v/v) at a flow rate of 0.3 mL/min. The injection volume was 10 µL. The retention time for resatorvid was ~15.9 min. Quantification was determined using peak area and calculated from a five-point standard curve (0.0625 mg/mL to 1 mg/mL, R^2 = 0.9971). Standards were prepared by volumetric dilution in acetonitrile and stored at 4 °C, protected from light. The modifications made to the method were using a column length of 250 mm × 2 mm instead of 150 mm × 2.1 mm and a mobile phase of 50:50 (v/v) acetonitrile: trifluoroacetic acid (0.1% v/v) instead of 40:60 (v/v) acetonitrile: trifluoroacetic acid (0.1% v/v) as previously reported.
# Resatorvid raw powder was weighed out (0.003 g) and placed in 2 dram amber-colored glass vials containing equal volumes (1.5 mL) of 1-octanol and PBS (1×, pH = 7.4) to make a 1 mg/mL solution. Various solutions were made, and the pH was adjusted and maintained at pH values of 6.5, 7.1, 8.8. Adjustments to the pH were made using 0.1 M hydrochloric acid (HCl) solution and 0.1 M sodium hydroxide (NaOH) solution. […] The vials were rotated using a Barnstead/Thermolyne Labquake shaker (Dubuque, IA, USA) for 24 h and left undisturbed in a vertical position for an additional 24 h for phase separation between the aqueous and non-aqueous layers. Then, 200 μL of the organic and aqueous layers were sampled very carefully without disturbing the separation of phases and analyzed via the HPLC method previously mentioned.
# [4] = Residual water content by Karl Fisher coulometric titration; format: physicochemical; conditions: KFT, n = 4, mean ± SD, Table S2
# Description: The residual water content of raw resatorvid powder was quantified by coulometric KFT using a TitroLine 750 trace titrator (SI Analytics, Weilheim, Germany). In brief, 1 mL of 0.1% (w/v) of resatorvid in anhydrous methanol was added to the titration cell containing Hydranal® Coulomat AD reagent.
# [5] = In vitro cell dose-response (resazurin viability) in 2D culture, HaCaT; format: cell-based, human; conditions: human, HaCaT cells (transformed keratinocytes), 2D culture; concentrations at 0.01 µM and 0.1 µM
# Description: as §1, §2
# HaCaT cells = experiment: as above; format: cell-based, human; conditions: for toxicity to HaCaT cells: 0.01-1000 µM raw resatorvid, 72 h exposure as printed in results
# Description: as §1, §2
# [6] = set-up: method as in PMID 29437671; conditions: standardized Franz cell system; cited from earlier work
# [7] = Particle sizing by SEM image analysis; format: physicochemical
# Source text: The particle size and surface morphology of raw resatorvid were obtained using scanning electron microscopy (SEM) (FEI, Brno, Czech Republic). The samples were sprinkled onto the double-sided adhesive carbon tabs (Ted Patella, Inc. Redding, CA, USA), which were adhered to aluminum stubs and coated with a 7 nm thin film of gold palladium alloy, using an Anatech Hummer 6.2 (Union City, CA, USA) sputtering system at 20 µA for 90 s under an argon plasma. The electron beam with an accelerating voltage of 30 kV was used at a working distance of approximately 9–12 mm. The SEM images were collected at various magnifications.
# Using SEM micrographs, the mean size, standard deviation, and size range of the particles were determined digitally using SigmaScan^TM Pro 5.0.0 (Systat, Inc., San Jose, CA, USA). Representative micrographs of raw resatorvid at 400–5000× magnification were analyzed by measuring the diameter of at least 60 particles per sampling.
# [8] = method and reference not given; cited from earlier work
smiles,measurement,setting,value
"CCOC(=O)C1=CCCC[C@H]1S(=O)(=O)Nc1ccc(F)cc1Cl [resatorvid, ethyl (6R)-6-[N-(2-Chloro-4-fluorophenyl)sulfamoyl]cyclohex-1-ene-1-carboxylate]",viability at 48 h,[1],~100%
same,toxicity to NHEK cells,[2],negligible toxicity
same,toxicity to NHEK cells,[2]; listed as Resatorvid,did not show any significant toxicity
same,modulation of UV-induced biomarkers,"SKH-1 mice; acetone solution of TAK-242 (13 mM), SKH-1 mice",successfully modulated UV-induced biomarkers
same,UV-induced AP-1 activation,SKH-1 mice; mice,reduces UV-induced AP-1 activation
same,photocarcinogenesis,SKH-1 mice; mice,inhibits photocarcinogenesis
same,Experimental (Log-P),"[3]; At 35 °C, pH = 6.5, 1-octanol/PBS",1.65 ± 0.029
same,Experimental (Log-P),"[3]; At 35 °C, pH = 7.1",1.68 and 1.68 ± 0.013
same,Experimental (Log-P),"[3]; At 35 °C, pH = 8.8",0.94 ± 0.023
same,Experimental (Log-P),"[3]; At Room temperature/ambient temperature, pH = 6.5",1.58 ± 0.019
same,Experimental (Log-P),"[3]; At Room temperature/ambient temperature, pH = 7.1",1.54 ± 0.149
same,Experimental (Log-P),"[3]; At Room temperature/ambient temperature, pH = 8.8",0.88 ± 0.060
same,"partition coefficient (Log-P), range over pH",[3]; at 35 °C,0.94–1.68
same,"partition coefficient (Log-P), range over pH",[3]; at room/ambient temperature,0.88–1.58
same,Residual Water content,[4],0.0173 ± 0.0156 %w/w
same,viability at 48 h,[5],~100%
same,toxicity to HaCaT cells,HaCaT cells,negligible toxicity
same,toxicity to HaCaT cells,HaCaT cells; listed as Resatorvid,did not show any significant toxicity
same,effect on HaCaT cells at higher concentrations,HaCaT cells; concentration increased from 1 µM to 1000 µM,cell proliferation was observed
same,"amount of resatorvid in the lower epidermis (tape strips 4–12), average over time course",[6],5 µg/cm^2
same,time remaining in the skin,[6],at least 8 hr
same,average geometric (linear) size of the raw particles,[7],5.84 µm
same,experimentally determined pKa reported,[8],8.0–8.1
